Data taken from EP0093484A2, “Antibacterial monic acid derivatives” (BEECHAM GROUP PLC, priority 1982, dated 1983).
Values after ≈ are worked out from the molar mass of the structure shown.

Legend:
[1] = tested on: M. suipneumoniae NB12; assay: Anti-mycoplasmal activity, MIC in Friis broth agarose; type: cell-based; conditions: Mesomycoplasma hyopneumoniae, 144 h, Friis broth solidified with 0.9% agarose, 6 days incubation at 37°C, read-out: MIC
[2] = tested on: M. suipneumoniae JF 435; assay: as above; type: cell-based; conditions: Mesomycoplasma hyopneumoniae, JF435, 144 h, Friis broth solidified with 0.9% agarose, 6 days incubation at 37°C, read-out: MIC
[3] = tested on: M. suipneumoniae HK(2); assay: as above; type: cell-based; conditions: Mesomycoplasma hyopneumoniae, 144 h, Friis broth solidified with 0.9% agarose, 6 days incubation at 37°C, read-out: MIC
[4] = tested on: M. suipneumoniae J2206/183b; assay: as above; type: cell-based; conditions: Mesomycoplasma hyopneumoniae, 144 h, Friis broth solidified with 0.9% agarose, 6 days incubation at 37°C, read-out: MIC
[5] = tested on: M. suipneumoniae MS16; assay: as above; type: cell-based; conditions: Mesomycoplasma hyopneumoniae, 144 h, Friis broth solidified with 0.9% agarose, 6 days incubation at 37°C, read-out: MIC
[6] = tested on: M. suipneumoniae TAM 6N; assay: as above; type: cell-based; conditions: Mesomycoplasma hyopneumoniae, TAM6N, 144 h, Friis broth solidified with 0.9% agarose, 6 days incubation at 37°C, read-out: MIC
[7] = tested on: M. suipneumoniae ATCC 25095; assay: as above; type: cell-based; conditions: Mesomycoplasma hyopneumoniae, ATCC25095, 144 h, Friis broth solidified with 0.9% agarose, 6 days incubation at 37°C, read-out: MIC
[8] = tested on: M. suipneumoniae NCTC 10110; assay: as above; type: cell-based; conditions: Mesomycoplasma hyopneumoniae, NCTC10110, 144 h, Friis broth solidified with 0.9% agarose, 6 days incubation at 37°C, read-out: MIC
[9] = tested on: M. hyorhinis ATCC 23234; assay: as above; type: cell-based; conditions: Mesomycoplasma hyorhinis, ATCC23234, 144 h, Friis broth solidified with 0.9% agarose, 6 days incubation at 37°C, read-out: MIC
[10] = tested on: M. bovis NCTC 10131; assay: microbe, parasite or virus in culture; type: cell-based; conditions: NCTC10131, 144 h
[11] = tested on: M. dispar NCTC 10125; assay: Anti-mycoplasmal activity, MIC in Friis broth agarose; type: cell-based; conditions: 144 h, Friis broth solidified with 0.9% agarose, 6 days incubation at 37°C, read-out: MIC
[12] = tested on: M. gallisepticum S6; assay: as above; type: cell-based; conditions: Mycoplasmoides gallisepticum, 144 h, Friis broth solidified with 0.9% agarose, 6 days incubation at 37°C, read-out: MIC
[13] = tested on: E. coli NCTC 10418; assay: Human bacteria, MIC by serial dilution in nutrient agar; type: cell-based; conditions: Escherichia coli, NCTC10418; E. coli NCTC 10418 (human panel); nutrient agar with 5% chocolated horse blood; 18 hours at 37°C; read-out: MIC
[14] = tested on: E. coli ESS; assay: as above; type: cell-based; conditions: Escherichia coli, nutrient agar with 5% chocolated horse blood, 18 hours at 37°C, read-out: MIC
[15] = tested on: P. mirabilis 889; assay: as above; type: cell-based; conditions: Proteus mirabilis, nutrient agar with 5% chocolated horse blood, 18 hours at 37°C, read-out: MIC
[16] = tested on: K. aerogenes A; assay: as above; type: cell-based; conditions: Klebsiella aerogenes, nutrient agar with 5% chocolated horse blood, 18 hours at 37°C, read-out: MIC
[17] = tested on: Ps. aeruginosa 10662; assay: as above; type: cell-based; conditions: Pseudomonas aeruginosa, nutrient agar with 5% chocolated horse blood, 18 hours at 37°C, read-out: MIC
[18] = tested on: Haemophilus influenzae Q1; assay: as above; type: cell-based; conditions: nutrient agar with 5% chocolated horse blood, 18 hours at 37°C, read-out: MIC
[19] = tested on: Haemophilus influenzae Wy21; assay: as above; type: cell-based; conditions: nutrient agar with 5% chocolated horse blood, 18 hours at 37°C, read-out: MIC
[20] = tested on: Bacillus subtilis 6633; assay: as above; type: cell-based; conditions: nutrient agar with 5% chocolated horse blood, 18 hours at 37°C, read-out: MIC
[21] = tested on: Corynebacterium xerosis 9755; assay: as above; type: cell-based; conditions: nutrient agar with 5% chocolated horse blood, 18 hours at 37°C, read-out: MIC
[22] = tested on: Sarcina lutea 8340; assay: as above; type: cell-based; conditions: Micrococcus luteus, nutrient agar with 5% chocolated horse blood, 18 hours at 37°C, read-out: MIC
[23] = tested on: Staph. aureus Oxford; assay: as above; type: cell-based; conditions: Staphylococcus aureus; Staph. aureus Oxford (human panel); nutrient agar with 5% chocolated horse blood; 18 hours at 37°C; read-out: MIC
[24] = tested on: Staph. aureus Russell; assay: as above; type: cell-based; conditions: Staphylococcus aureus, nutrient agar with 5% chocolated horse blood, 18 hours at 37°C, read-out: MIC
[25] = tested on: Staph. aureus W2827; assay: as above; type: cell-based; conditions: Staphylococcus aureus, nutrient agar with 5% chocolated horse blood, 18 hours at 37°C, read-out: MIC
[26] = tested on: Strep. faecalis I; assay: as above; type: cell-based; conditions: Enterococcus faecalis, nutrient agar with 5% chocolated horse blood, 18 hours at 37°C, read-out: MIC
[27] = tested on: Strep. pyogenes R80/421-A; assay: as above; type: cell-based; conditions: Streptococcus pyogenes, nutrient agar with 5% chocolated horse blood, 18 hours at 37°C, read-out: MIC
[28] = tested on: Strep. agalactiae 2788-B; assay: as above; type: cell-based; conditions: Streptococcus agalactiae, nutrient agar with 5% chocolated horse blood, 18 hours at 37°C, read-out: MIC
[29] = tested on: Strep. spp. 64/848-C; assay: as above; type: cell-based; conditions: nutrient agar with 5% chocolated horse blood, 18 hours at 37°C, read-out: MIC
[30] = tested on: E. coli E1; assay: Veterinary bacteria, MIC by two fold serial dilution in agar; conditions: Escherichia coli, E1, 18 h
Experimental: (§1) The activity of the compounds of the Examples against various organisms important in veterinary infections was determined using two fold serial dilutions in Diagnostic Sensitivity Test Agar inoculated with 10^4 organisms.

[31] = tested on: S. dublin S7; assay: as above; conditions: Salmonella enterica, S7, 18 h
Experimental: as §1

[32] = tested on: S. typhimurium S18; assay: as above; conditions: Salmonella enterica, TYPHIMURIUM, 18 h
Experimental: as §1

[33] = tested on: Bord. bronchiseptica B08; assay: as above; conditions: Bordetella bronchiseptica, B08, 18 h
Experimental: as §1

[34] = tested on: Past. multocida PA2; assay: as above; conditions: Pasteurella multocida, PA2, 18 h
Experimental: as §1

[35] = tested on: Erysipelothrix rhusiopathiae NCTC 8163; assay: as above; conditions: Erysipelothrix rhusiopathiae, NCTC8163, 18 h
Experimental: as §1

[36] = tested on: Staph. aureus 152 (pen. sens.); assay: as above; conditions: Staphylococcus aureus, 18 h
Experimental: as §1

[37] = tested on: Staph. aureus Oxford; assay: as above; conditions: Staphylococcus aureus, 18 h
Experimental: as §1

[38] = tested on: Strep. suis (group D) SPS11; assay: as above; conditions: Streptococcus suis, 18 h
Experimental: as §1

[39] = tested on: Strep. dysgalactiae SPD1; assay: as above; conditions: Streptococcus dysgalactiae, SPD1, 18 h
Experimental: as §1

[40] = tested on: Strep. agalactiae SPA1; assay: as above; conditions: Streptococcus agalactiae, SPA1, 18 h
Experimental: as §1

Row | SMILES | MIC [1] | MIC [2] | MIC [3] | MIC [4] | MIC [5] | MIC [6] | MIC [7] | MIC [8] | MIC [9] | MIC [10] | MIC [11] | MIC [12] | MIC [13] | MIC [14] | MIC [15] | MIC [16] | MIC [17] | MIC [18] | MIC [19] | MIC [20] | further results
1 | CSc1ccc(COC(=O)C=C(C)CC2OCC(CC3OC3C(C)C(C)O)C(O)C2O)cc1 (stereo not drawn) [Example 1, p-Methylthiobenzyl monate A] | 0.5 µg/mL (≈ 1.04 µM) | 0.5 µg/mL (≈ 1.04 µM) | 0.5 µg/mL (≈ 1.04 µM) | 0.5 µg/mL (≈ 1.04 µM) | 0.25 µg/mL (≈ 0.52 µM) | 0.5 µg/mL (≈ 1.04 µM) | 0.5 µg/mL (≈ 1.04 µM) | 0.5 µg/mL (≈ 1.04 µM) | 0.25 µg/mL (≈ 0.52 µM) | ≤ 0.01 µg/mL | 0.1 µg/mL (≈ 0.208 µM) | 2.5 µg/mL (≈ 5.2 µM) | 100 µg/mL (≈ 208 µM) | 1 µg/mL (≈ 2.08 µM) | 100 µg/mL (≈ 208 µM) | > 100 µg/mL | > 100 µg/mL | 0.25 µg/mL (≈ 0.52 µM) | 0.25 µg/mL (≈ 0.52 µM) | 0.25 µg/mL (≈ 0.52 µM) | MIC [21]: > 100 µg/mL; MIC [22]: > 100 µg/mL; MIC [23]: 0.5 µg/mL (≈ 1.04 µM); MIC [24]: 0.5 µg/mL (≈ 1.04 µM); MIC [25]: 0.5 µg/mL (≈ 1.04 µM); MIC [26]: 100 µg/mL (≈ 208 µM); MIC [27]: 0.1 µg/mL (≈ 0.208 µM); MIC [28]: 1 µg/mL (≈ 2.08 µM); MIC [29]: 0.5 µg/mL (≈ 1.04 µM); MIC [30]: > 80 µg/mL; MIC [31]: > 80 µg/mL; MIC [32]: > 80 µg/mL; MIC [33]: 20 µg/mL (≈ 41.6 µM); MIC [34]: 0.156 µg/mL (≈ 0.325 µM); MIC [35]: 10 µg/mL (≈ 20.8 µM); MIC [36]: 0.156 µg/mL (≈ 0.325 µM); MIC [37]: 0.156 µg/mL (≈ 0.325 µM); MIC [38]: 2.5 µg/mL (≈ 5.2 µM); MIC [39]: 0.156 µg/mL (≈ 0.325 µM); MIC [40]: 0.312 µg/mL (≈ 0.649 µM)
2 | CC(=CC(=O)OCc1ccc([S+](C)[O-])cc1)CC1OCC(CC2OC2C(C)C(C)O)C(O)C1O (stereo not drawn) [Example 2, p- Methylsulphinylbenzyl monate A] | 0.25 µg/mL (≈ 0.503 µM) | 0.25 µg/mL (≈ 0.503 µM) | 0.25 µg/mL (≈ 0.503 µM) | 0.25 µg/mL (≈ 0.503 µM) | 0.1 µg/mL (≈ 0.201 µM) | 0.5 µg/mL (≈ 1.01 µM) | 0.25 µg/mL (≈ 0.503 µM) | 0.25 µg/mL (≈ 0.503 µM) | 0.25 µg/mL (≈ 0.503 µM) | ≤ 0.01 µg/mL | 0.1 µg/mL (≈ 0.201 µM) | 1 µg/mL (≈ 2.01 µM) | > 100 µg/mL | 0.5 µg/mL (≈ 1.01 µM) | 50 µg/mL (≈ 101 µM) | > 100 µg/mL | > 100 µg/mL | 0.05 µg/mL (≈ 0.101 µM) | 0.1 µg/mL (≈ 0.201 µM) | 1 µg/mL (≈ 2.01 µM) | MIC [21]: > 100 µg/mL; MIC [22]: > 100 µg/mL; MIC [23]: 2.5 µg/mL (≈ 5.03 µM); MIC [24]: 2.5 µg/mL (≈ 5.03 µM); MIC [25]: 2.5 µg/mL (≈ 5.03 µM); MIC [26]: 50 µg/mL (≈ 101 µM); MIC [27]: 0.5 µg/mL (≈ 1.01 µM); MIC [28]: 1 µg/mL (≈ 2.01 µM); MIC [29]: 1 µg/mL (≈ 2.01 µM); MIC [30]: > 80 µg/mL; MIC [31]: > 80 µg/mL; MIC [32]: > 80 µg/mL; MIC [33]: 40 µg/mL (≈ 80.5 µM); MIC [34]: 0.625 µg/mL (≈ 1.26 µM); MIC [35]: 20 µg/mL (≈ 40.3 µM); MIC [36]: 1.25 µg/mL (≈ 2.52 µM); MIC [37]: 1.25 µg/mL (≈ 2.52 µM); MIC [38]: 2.5 µg/mL (≈ 5.03 µM); MIC [39]: 0.312 µg/mL (≈ 0.628 µM); MIC [40]: 0.625 µg/mL (≈ 1.26 µM)
3 | CC(=CC(=O)OCc1ccc(S(C)(=O)=O)cc1)CC1OCC(CC2OC2C(C)C(C)O)C(O)C1O (stereo not drawn) [Example 3, p-Methylsulphonylbenzyl monate A] | 0.1 µg/mL (≈ 0.195 µM) | 0.25 µg/mL (≈ 0.488 µM) | 0.25 µg/mL (≈ 0.488 µM) | 0.25 µg/mL (≈ 0.488 µM) | 0.1 µg/mL (≈ 0.195 µM) | 0.25 µg/mL (≈ 0.488 µM) | 0.1 µg/mL (≈ 0.195 µM) | 0.25 µg/mL (≈ 0.488 µM) | 0.1 µg/mL (≈ 0.195 µM) | < 0.01 µg/mL | 0.05 µg/mL (≈ 0.0975 µM) | 0.5 µg/mL (≈ 0.975 µM) | 100 µg/mL (≈ 195 µM) | 0.5 µg/mL (≈ 0.975 µM) | 50 µg/mL (≈ 97.5 µM) | > 100 µg/mL | > 100 µg/mL | 0.05 µg/mL (≈ 0.0975 µM) | 0.1 µg/mL (≈ 0.195 µM) | 0.5 µg/mL (≈ 0.975 µM) | MIC [21]: > 100 µg/mL; MIC [22]: > 100 µg/mL; MIC [23]: 1 µg/mL (≈ 1.95 µM); MIC [24]: 2.5 µg/mL (≈ 4.88 µM); MIC [25]: 2.5 µg/mL (≈ 4.88 µM); MIC [26]: 50 µg/mL (≈ 97.5 µM); MIC [27]: 0.25 µg/mL (≈ 0.488 µM); MIC [28]: 0.5 µg/mL (≈ 0.975 µM); MIC [29]: 0.5 µg/mL (≈ 0.975 µM); MIC [30]: > 80 µg/mL; MIC [31]: > 80 µg/mL; MIC [32]: > 80 µg/mL; MIC [33]: 20 µg/mL (≈ 39 µM); MIC [34]: 0.156 µg/mL (≈ 0.304 µM); MIC [35]: 80 µg/mL (≈ 156 µM); MIC [36]: 1.25 µg/mL (≈ 2.44 µM); MIC [37]: 1.25 µg/mL (≈ 2.44 µM); MIC [38]: 2.5 µg/mL (≈ 4.88 µM); MIC [39]: 0.156 µg/mL (≈ 0.304 µM); MIC [40]: 0.625 µg/mL (≈ 1.22 µM)
